Assay type in all cases: in vivo
In assay [1] the test system is durée de la réponse postprandiale. In words: Effects of melatoninergic ligands on the duration of the postprandial response (irregular intestinal motor activity) in the rat. The note with it: male Wistar rats, 30 min before access to food. On the procedure:
Chez le rat, la durée de la réponse postprandiale évaluée par l'activité motrice irrégulière intestinale, est plus courte en période d'obscurité que pendant la période diurne et ceci pour une même quantité d'aliments ingérés. Afin de confirmer que cette diminution de la durée pouvait être due à la sécrétion nocturne de mélatonine, le protocole suivant a été réalisé : des rats mâles Wistar adultes habitués à un cycle lumière/obscurité 12h/12h sont implantés sous anesthésie d'électrodes sur la paroi de l'intestin afin d'enregistrer l'activité myoélectrique. Les rats ont un accès limité (30 min) à la nourriture soit pendant la période nocturne soit pendant la période diurne. Les molécules de l'invention sont administrées 30 min avant l'accès à la nourriture. Le paramètre évalués dans ces études est la durée de l'activité irrégulière motrice. Les périodes de complexes myoélectriques ne sont pas prises en compte dans le cas d'induction par la molécule testée.

Assay [2] has as its system complexes myoélectriques intestinaux. In words: Effects of melatoninergic ligands on intestinal myoelectric complexes in the rat (electrodes implanted on the intestinal wall). The note with it: male Wistar rats. On the procedure: Des rats mâles Wistar adultes placés en cycle lumière/obscurité 12h/12h sont implantés sous anesthésie d'électrodes sur la paroi de l'intestin afin d'enregistrer l'activité myoélectrique. Les rats ont un accès limité (30 min) à la nourriture pendant la période diurne.
Les composés de l'invention agonistes mélatoninergiques ou la mélatonine sont administrés par voie intraveineuse à la dose de 1 mg/kg, 10 min avant le repas. […] Ces complexes myoélectriques apparaissent tout d'abord sur le duodénum avec un délai de 50 min puis ils se propagent sur le jéjunum et l'iléon.

For assay [3], the system named is inflammation intestinale induite par l'indométhacine. The assay can be described thus: Indomethacin-induced intestinal inflammation model in the rat. The note with it: male Wistar rats, 50 mg/kg ip ten minutes before each of two indomethacin doses (7,5 mg/kg sc, 24 h apart). The text has this: L'inflammation intestinale induite par administration d'indométhacine chez le rat est considérée comme un modèle animal physiopathologique présentant des modifications du comportement et de la motricité intestinale similaires à celles observées chez les patients atteints de la maladie de Crohn (Yamada T. et al, 1993, Mechanisms of acute and chronic intestinal inflammation induces by indomethacin, Inflammation, 17-6, 641-62; Gurbuz V. et al, 1999, Role of nitric oxide in indomethacin-induced gastric mucosal dysfunction in the rat, Experimental Physiology, 84, 319-332; Chen K. et al, 1999, Expression of NO II and its role in the experimental small bowel ulceration in rats, Surgery, 126, 553-561).
Des rats mâles Wistar adultes placés en cycle lumière/obscurité 12h/12h sont implantés sous anesthésie d'électrodes sur la paroi de l'intestin afin d'enregistrer l'activité myoélectrique. Les animaux sont divisés en plusieurs groupes.
Le groupe de rats témoins reçoit deux administrations d'indométhacine (7,5 mg/kg sc) espacées de 24 h. Les autres groupes de rats sont prétraités par la mélatonine ou un ligand mélatoninergique (50 mg/kg ip) dix minutes avant les deux administrations d'indométhacine.
Les animaux sont suivis sur le plan comportemental (prise alimentaire), physiologique (aspect du pelage, diarrhées) et motricité intestinale.

The record followed here is patent EP1064941A1, “Use of melatoninergic ligands for obtaining pharmaceutical compositions for the prevention or the treatment of gastrointestinal pathologies” (ADIR ET COMPAGNIE, priority 1999, dated 2001).

`COc1ccc2[nH]cc(CCNC(C)=O)c2c1` [mélatonine]: the “durée de la réponse postprandiale diurne” value in assay [1] (100 µg/kg intravenous, given 4 h after onset of light) is recorded as “réduit la durée de la réponse postprandiale et la ramène à une durée de type nocturne”. In addition, in assay [2] (1 mg/kg intravenous, 10 min before the meal, daytime feeding (30 min access)), the “apparition de complexes myoélectriques pendant la réponse motrice postprandiale” value is given as “induisent l'apparition de complexes myoélectriques pendant la réponse motrice postprandiale”. The “délai d'apparition des complexes myoélectriques sur le duodénum” value in assay [2] (1 mg/kg intravenous, 10 min before the meal, complexes then propagate to jejunum and ileum) came to 50 min. The “symptômes de l'inflammation intestinale (diarrhées, perte de poils, prise alimentaire, motricité intestinale)” value in assay [3] was “ne présentent plus de diarrhées, de perte de poils, de diminution de la prise alimentaire et de la motricité intestinale”.
Turning to `CCc1ccc2scc(CCNC(C)=O)c2c1` [N-[2-(5-éthyl-1-benzothiophèn-3-yl)éthyl]acétamide], the “durée de la réponse postprandiale nocturne” value in assay [1] (given 5 h after onset of darkness) was “entraîne un allongement de la réponse postprandiale qui devient d'une durée équivalente à la réponse observée le jour”. The “blocage de l'induction des complexes myoélectriques par l'agoniste” value in assay [2] (antagonist pretreatment 2 mg/kg subcutaneous, 30 min before the agonist) is “empêche toute formation de complexe myoélectrique”.
